Measurements as given in patent US12226414B2, “1-isopropyl-3-methyl-8-(pyridin-3-yl)-1,3-dihydro-2H-imidazo[4,5-c] cinnolin-2-one as selective modulators of ataxia telangiectasia mutated (ATM) kinase and uses thereof” (SUZHOU ZANRONG PHARMA LIMITED, priority 2018, dated 2025).

Columns and labels:
PIK3Cδ = PIK3Cδ (Homo sapiens (Human), UniProt O00329); test: PI3K biochemical potency assay (PI3Kδ)
Description: (§1) PI3Kα (p110α/p85a), PIK3C δ, PIK3Cβ (p110β), PIK3Cγ (pp110γ) kinase reaction solutions of PI3Kα (Invitrogen, Cat. No. PV4788), PIK3Cδ (Invitrogen, Cat. No. PV6452), PIK3Cβ (Millipore, Cat. No. 14-603-K), PIK3Cγ (Invitrogen, Cat. No. PR8641C) enzymes were prepared in 1× kinase buffer at 4-fold of the final concentration (final concentration: PI3Kα 0.7 nM, PIK3Cδ 3 nM, PIK3Cβ 4.8 nM, PIK3Cγ 11 nM) of each reagent in the assay. 2.5 μl of kinase solution was added to each well of the 384-well assay plate, which contains 2.5 μl of compounds with serially diluted concentration. 2× substrate solution was prepared with PIP2 substrate and ATP in 1× kinase reaction buffer at 2-fold of the final concentration of each reagent in the assay. 5 μl of substrate solution was added to each well of the assay plate to start reaction. The assay plate was incubated at room temperature for 1 hour. 5 μl reaction mix was transferred to a new 384 well plate. 5 μl of ADP-Glo reagent (Promega, Cat. No. v9102/3, Lot. No. 0000176563) was added to each well of the new assay plate to stop the reaction. The plate was shaken slowly and equilibrated for 40 minutes. 10 μl kinase detection reagents was added to each well, which was equilibrated for 60 minutes before read on a plate reader (Envision) for luminescence.

PIK3Cγ (pp110γ) = PIK3Cγ (pp110γ) (Homo sapiens (Human), UniProt P48736); test: PI3K biochemical potency assay (PI3Kγ)
Description: as §1

mTOR = mTOR (Homo sapiens (Human), UniProt P42345); test: mTOR biochemical potency assay
Description: Solution of mTOR enzymes (Millipore, Cat. No. 14-770, Lot. No. 2052551) was prepared in 1× kinase buffer at 4-fold of the final concentration (final concentration: 6 nM) in the assay. 2.5 μl of kinase solution was added to each well of the 384-well assay plate, which contains 2.5 μl of compounds with serially diluted concentration. 2× substrate solution was prepared with ULight-4E-BP1 (Thr37/46) Peptide (PE, Cat. No. TRF0128-M, Lot. No. 1695274) and ATP in 1× kinase reaction buffer at 2-fold of the final concentration of each reagent in the assay. 5 μl of substrate solution was added to each well of the assay plate to start reaction. The assay plate was incubated at room temperature for 30 minutes. Detection solution of kinase quench buffer (EDTA) and Eu-anti-phospho-4E-BP1 antibody (Thr37/46) (PE, Cat. No. TRF0216-M, Lot. No. 1571838) were prepared at 2-fold the desired final concentrations of each reagent in Lance detection buffer. 10 μl of detection solution buffer was added to each well of the assay plate. The assay plate was equilibrated for 60 minutes at room temperature before read on a plate reader (Lance signal (665 nm) from Envision program).

PIK3Cβ (p110β) = PIK3Cβ (p110β) (Homo sapiens (Human), UniProt P42338); test: PI3K biochemical potency assay (PI3Kβ)
Description: as §1

ATR = ATR (Homo sapiens (Human), UniProt Q13535); test: ATR biochemical potency assay
Description: ATR enzyme was made by ChemPartner (batch: CP-ATR-20161102-M2). 2× enzyme solutions were prepared in 1× kinase base buffer. 10 μl of 2× enzyme solution (final concentration: 2.5 nM) was added to each well of the 384-well assay plate containing 60 nl compound in each well. The plate was incubated at room temperature for 10 minutes. 2× peptide solutions were prepared with FAM-labeled peptide and ATP in the 1× kinase base buffer. 10 μl of 2× peptide solution was added to each well of the 384-well assay plate, which was incubated at 28° C. for 240 min. 40 μl of stop buffer was added to stop reaction. Data were collected by Caliper.

PI3Kα (p110α/p85a) = PI3Kα (p110α/p85a) (Homo sapiens (Human), UniProt P42336); test: PI3K biochemical potency assay (PI3Kα)
Description: as §1

[1] = molecular target: ATM in SN38 treated HT-29 cells (Homo sapiens (Human), UniProt Q13315); test: ATM SN-38 HT-29 cellular potency assay
Description: Inhibition of ATM was evaluated in SN38 treated HT-29 cells (ATCC, Cat #HTB-38) by high-Content Imaging System
HT-29 cells were trypsinized and approximately 10,000 cells were seeded per well to 96-well microplates which were incubated overnight at 37° C. and 5% CO2. Test compounds were added to the 96-well plates which were incubated at 37° C. and 5% CO2 for 1 hour. […] After the plates were rinsed 3 times with PBSA, 50 μl permeabilization buffer (0.1% Triton-X 100 in PBSA) was added and the plates were incubated for 20 minutes at room temperature. After the plates were rinsed once with PBSA, 50 μl primary antibody solution was added and the plates were incubated in at 4° C. overnight. […] The plates were rinsed with PBST 3 times and then 100 μl PBSA were added per well. The plates were sealed with black plate seals.

ATM = ATM (Homo sapiens (Human), UniProt Q13315); test: ATM biochemical potency assay
Description: The plate was incubated at room temperature for 10 minutes. […] Data was collected by Caliper.

Chain of PI3Kα (p110α/p85a) (P42336 whole entry, looked up): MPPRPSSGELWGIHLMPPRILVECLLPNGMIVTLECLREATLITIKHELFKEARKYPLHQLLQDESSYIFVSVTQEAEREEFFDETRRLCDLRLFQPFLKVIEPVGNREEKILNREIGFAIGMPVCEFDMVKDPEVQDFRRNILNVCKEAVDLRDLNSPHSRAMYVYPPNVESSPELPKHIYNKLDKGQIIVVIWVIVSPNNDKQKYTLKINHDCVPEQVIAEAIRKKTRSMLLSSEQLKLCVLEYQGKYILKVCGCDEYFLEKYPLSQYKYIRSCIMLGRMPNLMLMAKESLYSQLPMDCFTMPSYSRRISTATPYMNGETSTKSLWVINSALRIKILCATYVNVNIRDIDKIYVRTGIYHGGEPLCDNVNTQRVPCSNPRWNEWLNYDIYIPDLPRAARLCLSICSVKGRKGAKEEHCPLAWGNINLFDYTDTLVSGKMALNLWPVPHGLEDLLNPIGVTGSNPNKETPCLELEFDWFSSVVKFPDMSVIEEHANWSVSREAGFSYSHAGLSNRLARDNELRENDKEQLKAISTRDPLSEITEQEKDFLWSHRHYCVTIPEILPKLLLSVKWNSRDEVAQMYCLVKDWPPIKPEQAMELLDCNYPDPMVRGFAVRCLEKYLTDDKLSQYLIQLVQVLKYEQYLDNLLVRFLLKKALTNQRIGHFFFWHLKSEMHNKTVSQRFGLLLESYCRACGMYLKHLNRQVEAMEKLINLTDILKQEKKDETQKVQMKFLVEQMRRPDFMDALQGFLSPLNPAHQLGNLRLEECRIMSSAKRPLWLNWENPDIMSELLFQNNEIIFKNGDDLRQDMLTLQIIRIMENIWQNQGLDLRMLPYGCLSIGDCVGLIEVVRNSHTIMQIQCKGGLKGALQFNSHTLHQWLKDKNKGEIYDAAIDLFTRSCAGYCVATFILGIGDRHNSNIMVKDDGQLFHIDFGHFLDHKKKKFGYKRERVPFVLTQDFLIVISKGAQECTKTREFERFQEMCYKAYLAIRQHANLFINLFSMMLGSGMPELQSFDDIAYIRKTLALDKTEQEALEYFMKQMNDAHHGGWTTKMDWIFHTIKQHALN
Chain of PI3Kα (p110α/p85a) (P27986 whole entry partner, looked up): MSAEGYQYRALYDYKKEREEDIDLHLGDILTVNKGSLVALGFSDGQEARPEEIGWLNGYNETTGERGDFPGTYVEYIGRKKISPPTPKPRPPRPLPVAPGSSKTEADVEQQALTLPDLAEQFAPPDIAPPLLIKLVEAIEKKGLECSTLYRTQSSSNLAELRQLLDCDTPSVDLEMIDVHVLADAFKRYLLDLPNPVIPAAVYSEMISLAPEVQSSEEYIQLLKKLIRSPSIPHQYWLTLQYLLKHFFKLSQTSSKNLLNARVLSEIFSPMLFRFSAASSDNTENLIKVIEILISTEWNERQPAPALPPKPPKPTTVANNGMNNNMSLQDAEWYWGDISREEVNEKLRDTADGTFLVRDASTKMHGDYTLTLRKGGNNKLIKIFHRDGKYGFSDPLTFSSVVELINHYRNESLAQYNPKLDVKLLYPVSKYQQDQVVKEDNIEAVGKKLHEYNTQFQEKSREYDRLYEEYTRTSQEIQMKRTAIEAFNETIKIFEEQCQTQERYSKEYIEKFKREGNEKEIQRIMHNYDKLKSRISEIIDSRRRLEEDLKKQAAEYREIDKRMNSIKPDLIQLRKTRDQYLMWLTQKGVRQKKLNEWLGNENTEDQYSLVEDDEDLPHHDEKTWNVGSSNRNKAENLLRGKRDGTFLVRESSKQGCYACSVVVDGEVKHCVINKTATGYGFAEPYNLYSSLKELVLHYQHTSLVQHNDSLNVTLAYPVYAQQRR
Chain of PIK3Cγ (pp110γ) (P48736 whole entry): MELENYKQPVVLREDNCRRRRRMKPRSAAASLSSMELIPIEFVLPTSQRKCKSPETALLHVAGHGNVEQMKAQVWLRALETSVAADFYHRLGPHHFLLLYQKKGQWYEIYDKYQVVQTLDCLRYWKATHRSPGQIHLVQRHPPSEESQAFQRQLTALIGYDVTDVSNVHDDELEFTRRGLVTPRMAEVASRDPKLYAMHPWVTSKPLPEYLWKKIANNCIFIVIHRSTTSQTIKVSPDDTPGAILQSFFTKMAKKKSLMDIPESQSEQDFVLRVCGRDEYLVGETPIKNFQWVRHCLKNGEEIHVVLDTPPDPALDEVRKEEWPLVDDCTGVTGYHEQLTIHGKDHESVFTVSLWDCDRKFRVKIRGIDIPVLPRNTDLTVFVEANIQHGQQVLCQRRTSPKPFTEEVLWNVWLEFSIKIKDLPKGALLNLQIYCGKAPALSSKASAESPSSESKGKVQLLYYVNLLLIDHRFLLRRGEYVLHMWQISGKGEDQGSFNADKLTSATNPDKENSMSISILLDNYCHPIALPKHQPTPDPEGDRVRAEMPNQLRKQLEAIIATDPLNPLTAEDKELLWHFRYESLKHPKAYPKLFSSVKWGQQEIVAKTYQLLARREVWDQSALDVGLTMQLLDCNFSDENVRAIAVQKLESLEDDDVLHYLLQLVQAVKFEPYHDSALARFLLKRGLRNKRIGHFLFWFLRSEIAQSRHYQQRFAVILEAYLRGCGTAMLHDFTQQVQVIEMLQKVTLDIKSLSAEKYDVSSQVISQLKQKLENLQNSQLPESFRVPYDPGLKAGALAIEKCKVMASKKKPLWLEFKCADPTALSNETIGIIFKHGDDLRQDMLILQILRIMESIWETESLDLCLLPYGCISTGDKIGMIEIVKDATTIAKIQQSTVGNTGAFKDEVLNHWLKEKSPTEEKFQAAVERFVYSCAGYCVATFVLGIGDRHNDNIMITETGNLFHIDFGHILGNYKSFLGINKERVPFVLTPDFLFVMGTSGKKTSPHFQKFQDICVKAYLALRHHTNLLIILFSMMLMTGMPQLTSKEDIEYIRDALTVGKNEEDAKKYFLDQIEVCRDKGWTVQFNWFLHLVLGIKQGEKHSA
Chain of PIK3Cβ (p110β) (P42338 whole entry, looked up): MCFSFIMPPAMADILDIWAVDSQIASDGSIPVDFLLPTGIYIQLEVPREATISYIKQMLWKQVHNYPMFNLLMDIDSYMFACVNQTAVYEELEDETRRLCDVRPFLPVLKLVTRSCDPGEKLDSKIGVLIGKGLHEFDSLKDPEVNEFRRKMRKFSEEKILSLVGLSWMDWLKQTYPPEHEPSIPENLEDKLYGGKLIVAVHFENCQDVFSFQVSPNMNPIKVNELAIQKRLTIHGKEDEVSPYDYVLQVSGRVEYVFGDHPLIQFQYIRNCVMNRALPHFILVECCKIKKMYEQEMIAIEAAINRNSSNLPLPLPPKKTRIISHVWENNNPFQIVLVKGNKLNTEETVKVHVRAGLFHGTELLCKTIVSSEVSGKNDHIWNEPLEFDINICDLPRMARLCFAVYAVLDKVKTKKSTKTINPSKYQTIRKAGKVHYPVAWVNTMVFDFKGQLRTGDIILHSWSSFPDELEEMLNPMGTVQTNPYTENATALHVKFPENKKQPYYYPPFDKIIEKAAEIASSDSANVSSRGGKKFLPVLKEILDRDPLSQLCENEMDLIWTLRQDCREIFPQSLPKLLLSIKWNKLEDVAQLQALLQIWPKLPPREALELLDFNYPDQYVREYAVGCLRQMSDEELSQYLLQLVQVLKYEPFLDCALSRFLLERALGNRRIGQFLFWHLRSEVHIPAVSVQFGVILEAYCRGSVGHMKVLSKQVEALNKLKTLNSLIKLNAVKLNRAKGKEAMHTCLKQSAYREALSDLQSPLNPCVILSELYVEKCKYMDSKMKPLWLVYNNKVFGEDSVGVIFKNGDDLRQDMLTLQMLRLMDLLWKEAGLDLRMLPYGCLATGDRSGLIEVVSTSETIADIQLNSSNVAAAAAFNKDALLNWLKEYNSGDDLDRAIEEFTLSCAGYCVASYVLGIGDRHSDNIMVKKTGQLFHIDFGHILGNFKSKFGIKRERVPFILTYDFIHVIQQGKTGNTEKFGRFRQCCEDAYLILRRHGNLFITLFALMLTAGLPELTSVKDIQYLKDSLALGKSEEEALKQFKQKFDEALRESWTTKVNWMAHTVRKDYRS
Chain of PIK3Cβ (p110β) (P27986 whole entry partner, looked up): as the sequence (P27986 whole entry partner, looked up) above
Chain of PIK3Cδ (O00329 whole entry, looked up): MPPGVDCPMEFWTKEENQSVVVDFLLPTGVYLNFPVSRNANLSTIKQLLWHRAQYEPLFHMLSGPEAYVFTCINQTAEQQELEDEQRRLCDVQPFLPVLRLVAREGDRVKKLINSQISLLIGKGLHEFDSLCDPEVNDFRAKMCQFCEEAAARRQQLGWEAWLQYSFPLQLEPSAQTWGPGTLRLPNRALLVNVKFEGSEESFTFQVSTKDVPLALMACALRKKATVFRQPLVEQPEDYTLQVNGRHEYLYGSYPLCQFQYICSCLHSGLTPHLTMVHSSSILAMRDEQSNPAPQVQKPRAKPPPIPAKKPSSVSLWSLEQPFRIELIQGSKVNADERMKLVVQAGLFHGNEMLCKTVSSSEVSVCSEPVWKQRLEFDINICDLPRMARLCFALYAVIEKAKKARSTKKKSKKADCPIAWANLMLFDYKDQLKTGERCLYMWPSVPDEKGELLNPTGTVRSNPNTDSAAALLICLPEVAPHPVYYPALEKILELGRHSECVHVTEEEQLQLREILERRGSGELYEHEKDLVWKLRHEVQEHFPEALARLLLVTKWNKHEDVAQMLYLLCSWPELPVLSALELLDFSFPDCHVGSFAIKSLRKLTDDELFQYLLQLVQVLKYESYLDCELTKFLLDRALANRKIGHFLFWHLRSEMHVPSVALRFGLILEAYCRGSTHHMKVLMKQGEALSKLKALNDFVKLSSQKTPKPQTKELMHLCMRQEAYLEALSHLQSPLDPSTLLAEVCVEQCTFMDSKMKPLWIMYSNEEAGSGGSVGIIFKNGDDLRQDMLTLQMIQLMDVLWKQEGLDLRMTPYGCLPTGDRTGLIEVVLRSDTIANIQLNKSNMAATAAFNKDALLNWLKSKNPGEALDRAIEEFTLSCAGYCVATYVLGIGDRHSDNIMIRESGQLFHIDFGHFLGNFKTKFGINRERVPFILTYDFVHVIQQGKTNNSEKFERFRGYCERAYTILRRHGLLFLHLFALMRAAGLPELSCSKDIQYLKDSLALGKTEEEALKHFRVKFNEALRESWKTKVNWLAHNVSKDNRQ
Chain of PIK3Cδ (P27986 whole entry partner, looked up): as the sequence (P27986 whole entry partner, looked up) above

SMILES: CC(C)n1c(=O)n(C)c2nnc3cc(F)c(-c4ccc(OCCCN5CCCCC5)nc4)cc3c21 [Example 1, 7-fluoro-1-isopropyl-3-methyl-8-(6-(3-(piperidin-1-yl)propoxy)pyridin-3-yl)-1H-imidazo[4,5-c]cinnolin-2(3H)-one]
- IC50 (PIK3Cδ): > 10 µM
- IC50 (PIK3Cγ (pp110γ)): > 10 µM
- IC50 (mTOR): > 10 µM
- IC50 (PIK3Cβ (p110β)): > 10 µM
- IC50 (ATR): > 10 µM
- IC50 (PI3Kα (p110α/p85a)): > 10 µM
- IC50 [1]: 0.0015 µM
- IC50 (ATM): 0.0019 µM

SMILES: CC(C)n1c(=O)n(C)c2nnc3cc(F)c(-c4ccc(OCCCN(C)C)nc4)cc3c21 [Example 2, 8-(6-(3-(dimethylamino)propoxy)pyridin-3-yl)-7-fluoro-1-isopropyl-3-methyl-1H-imidazo[4,5-c]cinnolin-2(3H)-one]
- IC50 (PIK3Cδ): > 10 µM
- IC50 (PIK3Cγ (pp110γ)): > 10 µM
- IC50 (mTOR): > 10 µM
- IC50 (PIK3Cβ (p110β)): > 10 µM
- IC50 (ATR): > 10 µM
- IC50 (PI3Kα (p110α/p85a)): > 10 µM
- IC50 [1]: 0.27 µM
- IC50 (ATM): 0.0043 µM

SMILES: CC(C)n1c(=O)n(C)c2nnc3cc(F)c(-c4ccc(OCCCN5CCCC5)nc4)cc3c21 [Example 3, 7-fluoro-1-isopropyl-3-methyl-8-(6-(3-(pyrrolidin-1-yl)propoxy)pyridin-3-yl)-1H-imidazo[4,5-c]cinnolin-2(3H)-one]
- IC50 (PIK3Cδ): > 10 µM
- IC50 (PIK3Cγ (pp110γ)): > 10 µM
- IC50 (mTOR): > 10 µM
- IC50 (PIK3Cβ (p110β)): > 10 µM
- IC50 (ATR): > 10 µM
- IC50 (PI3Kα (p110α/p85a)): > 10 µM
- IC50 [1]: 0.011 µM
- IC50 (ATM): 0.0048 µM

SMILES: CC(C)n1c(=O)n(C)c2nnc3cc(F)c(-c4ccc(N5CCC(N(C)C)CC5)nc4)cc3c21 [Example 4, 8-(6-(4-(dimethylamino)piperidin-1-yl)pyridin-3-yl)-7-fluoro-1-isopropyl-3-methyl-1H-imidazo[4,5-c]cinnolin-2(3H)-one]
- IC50 (PIK3Cδ): > 10 µM
- IC50 (PIK3Cγ (pp110γ)): > 10 µM
- IC50 (mTOR): > 10 µM
- IC50 (PIK3Cβ (p110β)): > 10 µM
- IC50 (ATR): > 10 µM
- IC50 (PI3Kα (p110α/p85a)): > 10 µM
- IC50 (ATM): 0.01 µM

SMILES: CC(C)n1c(=O)n(C)c2nnc3cc(F)c(-c4ccc(N5CCC(CN(C)C)C5)nc4)cc3c21 (centres unmarked) [Example 5, 8-(6-(3-((dimethylamino)methyl)pyrrolidin-1-yl)pyridin-3-yl)-7-fluoro-1-isopropyl-3-methyl-1H-imidazo[4,5-c]cinnolin-2(3H)-one]
- IC50 (PIK3Cδ): > 10 µM
- IC50 (PIK3Cγ (pp110γ)): > 10 µM
- IC50 (mTOR): > 10 µM
- IC50 (PIK3Cβ (p110β)): > 10 µM
- IC50 (ATR): > 10 µM
- IC50 (PI3Kα (p110α/p85a)): > 10 µM
- IC50 (ATM): 0.065 µM

SMILES: CC(C)n1c(=O)n(C)c2nnc3cc(F)c(-c4ccc(COCCN(C)C)nc4)cc3c21 [Example 6, 8-(6-((2-(dimethylamino)ethoxy)methyl)pyridin-3-yl)-7-fluoro-1-isopropyl-3-methyl-1H-imidazo[4,5-c]cinnolin-2(3H)-one]
- IC50 (PIK3Cδ): > 10 µM
- IC50 (PIK3Cγ (pp110γ)): > 10 µM
- IC50 (mTOR): > 10 µM
- IC50 (PIK3Cβ (p110β)): > 10 µM
- IC50 (ATR): > 10 µM
- IC50 (PI3Kα (p110α/p85a)): > 10 µM
- IC50 [1]: 0.071 µM
- IC50 (ATM): 0.1 µM

SMILES: CC(C)n1c(=O)n(C)c2nnc3cc(F)c(-c4ccc(COCCN5CCCC5)nc4)cc3c21 [Example 8, 7-fluoro-1-isopropyl-3-methyl-8-(6-((2-(pyrrolidin-1-yl)ethoxy)methyl)pyridin-3-yl)-1H-imidazo[4,5-c]cinnolin-2(3H)-one]
- IC50 (PIK3Cδ): > 10 µM
- IC50 (PIK3Cγ (pp110γ)): > 10 µM
- IC50 (mTOR): > 10 µM
- IC50 (PIK3Cβ (p110β)): > 10 µM
- IC50 (ATR): > 10 µM
- IC50 (PI3Kα (p110α/p85a)): > 10 µM
- IC50 (ATM): 0.051 µM

SMILES: CC(C)n1c(=O)n(C)c2nnc3cc(F)c(-c4ccc(COCCN5CC[C@@H](F)C5)nc4)cc3c21 [Example 9, (R)-7-fluoro-8-(6-((2-(3-fluoropyrrolidin-1-yl)ethoxy)methyl)pyridin-3-yl)-1-isopropyl-3-methyl-1H-imidazo[4,5-c]cinnolin-2(3H)-one]
- IC50 (PIK3Cδ): > 10 µM
- IC50 (PIK3Cγ (pp110γ)): > 10 µM
- IC50 (mTOR): > 10 µM
- IC50 (PIK3Cβ (p110β)): > 10 µM
- IC50 (ATR): > 10 µM
- IC50 (PI3Kα (p110α/p85a)): > 10 µM
- IC50 (ATM): 0.035 µM

SMILES: CC(C)n1c(=O)n(C)c2nnc3cc(F)c(-c4ccc(COCCN5CCC(F)CC5)nc4)cc3c21 [Example 10, 7-fluoro-8-(6-((2-(4-fluoropiperidin-1-yl)ethoxy)methyl)pyridin-3-yl)-1-isopropyl-3-methyl-1H-imidazo[4,5-c]cinnolin-2(3H)-one]
- IC50 (PIK3Cδ): > 10 µM
- IC50 (PIK3Cγ (pp110γ)): > 10 µM
- IC50 (mTOR): > 10 µM
- IC50 (PIK3Cβ (p110β)): > 10 µM
- IC50 (ATR): > 10 µM
- IC50 (PI3Kα (p110α/p85a)): > 10 µM

SMILES: CC(C)n1c(=O)n(C)c2nnc3cc(F)c(-c4ccc(C(=O)NCCN(C)C)nc4)cc3c21 [Example 12, N-(2-(dimethylamino)ethyl)-5-(7-fluoro-1-isopropyl-3-methyl-2-oxo-2,3-dihydro-1H-imidazo[4,5-c]cinnolin-8-yl)picolinamide]
- IC50 (PIK3Cδ): > 10 µM
- IC50 (PIK3Cγ (pp110γ)): > 10 µM
- IC50 (mTOR): > 10 µM
- IC50 (PIK3Cβ (p110β)): > 10 µM
- IC50 (ATR): > 10 µM
- IC50 (PI3Kα (p110α/p85a)): > 10 µM
- IC50 (ATM): 0.363 µM

SMILES: CC(C)n1c(=O)n(C)c2nnc3cc(F)c(-c4ccc(OCCCN(C)C)nc4F)cc3c21 [Example 17, 8-(6-(3-(dimethylamino)propoxy)-2-fluoropyridin-3-yl)-7-fluoro-1-isopropyl-3-methyl-1,3-dihydro-2H-imidazo[4,5-c]cinnolin-2-one]
- IC50 (ATM): 0.007 µM

SMILES: Cn1c(=O)n(C2CCOCC2)c2c3cc(-c4ccc(OCCCN5CCCCC5)nc4)c(F)cc3nnc21 [Example 18, 7-fluoro-3-methyl-8-(6-(3-(piperidin-1-yl)propoxy)pyridin-3-yl)-1-(tetrahydro-2H-pyran-4-yl)-1H-imidazo[4,5-c]cinnolin-2(3H)-one]
- IC50 (ATM): 0.0048 µM

SMILES: CN(C)CCCOc1ccc(-c2cc3c(cc2F)nnc2c3n(C3CCOCC3)c(=O)n2C)cn1 [Example 19, 8-(6-(3-(dimethylamino)propoxy)pyridin-3-yl)-7-fluoro-3-methyl-1-(tetrahydro-2H-pyran-4-yl)-1H-imidazo[4,5-c]cinnolin-2(3H)-one]
- IC50 (ATM): 0.013 µM

SMILES: Cn1c(=O)n(C2CCOCC2)c2c3cc(-c4ccc(OCCCN5CCCC5)nc4)c(F)cc3nnc21 [Example 20, 7-fluoro-3-methyl-8-(6-(3-(pyrrolidin-1-yl)propoxy)pyridin-3-yl)-1-(tetrahydro-2H-pyran-4-yl)-1H-imidazo[4,5-c]cinnolin-2(3H)-one]
- IC50 (ATM): 0.006 µM

SMILES: CN(C)CC1CCN(c2ccc(-c3cc4c(cc3F)nnc3c4n(C4CCOCC4)c(=O)n3C)cn2)C1 (centres unmarked) [Example 21, 8-(6-(3-((dimethylamino)methyl)pyrrolidin-1-yl)pyridin-3-yl)-7-fluoro-3-methyl-1-(tetrahydro-2H-pyran-4-yl)-1H-imidazo[4,5-c]cinnolin-2(3H)-one]
- IC50 (ATM): 0.097 µM

SMILES: Cn1c(=O)n(C2CCOCC2)c2c3cc(-c4ccc(OCCCN5CCC(F)CC5)nc4)c(F)cc3nnc21 [Example 24, 7-fluoro-8-(6-(3-(4-fluoropiperidin-1-yl)propoxy)pyridin-3-yl)-3-methyl-1-(tetrahydro-2H-pyran-4-yl)-1H-imidazo[4,5-c]cinnolin-2(3H)-one]
- IC50 (ATM): > 1 µM

SMILES: Cn1c(=O)n(C2CCOCC2)c2c3cc(-c4ccc(OCCCN5CC[C@@H](F)C5)nc4)c(F)cc3nnc21 [Example 25, (R)-7-fluoro-8-(6-(3-(3-fluoropyrrolidin-1-yl)propoxy)pyridin-3-yl)-3-methyl-1-(tetrahydro-2H-pyran-4-yl)-1H-imidazo[4,5-c]cinnolin-2(3H)-one]
- IC50 (ATM): > 1 µM
